Reference: patent publication US12447136B2, “Use of (5R,7R,10R)-12,15-dioxo-α-selinene in the preparation of drugs” (KUNMING INSTITUTE OF BOTANY, CHINESE ACADEMY OF SCIENCES, priority 2020, dated 2025)

Test system: MPP^+-induced PC12 cell injury
Assay: Protective effect on MPP+-induced PC12 cell injury (MTS cell viability)
Description: 1. PC12 poorly-differentiated cells were cultured in a medium containing Dulbecco's modified Eagle's medium (DMEM) high glucose+10% fetal bovine serum (FBS)+100 U/mL penicillin-streptomycin, in an incubator at 37° C. and 5% CO2.
2. When growing to 80% to 90%, the PC12 poorly-differentiated cells were subjected to trypsin digestion to obtain a cell suspension.
3. The cell suspension was aspirated into a 15 mL centrifuge tube, followed by centrifugation at 800 rpm for 5 min.
4. After the centrifugation, the centrifuge tube was sterilized with alcohol and placed into an ultra-clean bench, and a supernatant was poured into a waste liquid tank.
5. 5 mL of a new complete medium was added, followed by blowing the medium ten times by a pipette to disperse the cells as much as possible, wherein the blowing should not be performed by too large of a force.
6. 0.02 mL of the cell suspension was taken and added to a cell counting plate for counting.
7. The cell suspension was adjusted to have a cell concentration of 1×10^5 cells/mL, then added to a 96-well plate by 0.1 mL per well, and incubated in a cell incubator.
8. After 23 h, the original medium was aspirated, and a new medium (the formula of which was the same as that in the above step 1) was added; the compound to be tested was added; and 1 h later, MPP^+ was added (a final concentration of the MPP^+ in the system was 750 μM).
9. Experimental design: each group was designed and performed for 3 repetitions:
A blank group included only medium.
A model group (MPP^+) included medium and MPP^+ which was added with a final concentration of 750 μM.
A positive control group (vitamin E) included medium, vitamin E which was added with a final concentration of 0.2 μM, and MPP^+ which was subsequently added with a final concentration of 750 μM.
10. 24 h after adding the MPP^+, MTS was added; after 2 h, values were read for detection.

Compound: C=C(C=O)[C@@H]1CC[C@@]2(C)CCC=C(C=O)[C@@H]2C1 [PFC-37, (5R,7R,10R)-12,15-dioxo-α-selinene]
- protective activity against MPP^+-induced PC12 cell injury (at concentrations of 1 μM and 2 μM (P<0.001)): significant protective activity
- protective effect on MPP^+-induced PC12 cell injury (screening in the MPP^+-induced PC12 cell injury model, no concentration stated): significant protective effect

Compound: vitamin E [reference compound]
- Cell viability (%) (0.2 μM compound or VE + 750 μM MPP^+, PC12 cells, MTS 24 h after MPP^+): 75.70 ± 0.64 %
